Where a SMILES comes first, the peptide text is derived from it. The star is where a group is joined. Myristoyl = CCCCCCCCCCCCCC(=O)*
System: not listed separately
Assay: Qualitative solubility of test peptides in 0.5 N saline
Format: physicochemical
Details: pH 6.5, 20° C. (table title)
Procedure: Various test peptides (1 to 5 mg each) were weighed out accurately in individual 2 mL screw cap glass vials and aliquots of 25 μL of 0.5 N saline, pH 6.5, were added at 25° C. and ambient pressure. The solubility was evaluated visually. If the test peptide dissolves completely with the first aliquot of saline, its solubility was calculated and designated as more than the calculated amount. […] Similarly, if 1.7 mg of a test peptide fails to dissolve in 1.7 mL of 0.5 N saline, its solubility is stated as <1.0 mg/mL.

Row | Molecule | solubility
1 | CCCCCCCCCCCCCC(=O)NCC(=O)N[C@@H](C)C(=O)N[C@@H](CCC(N)=O)C(=O)N[C@@H](Cc1ccccc1)C(=O)N[C@@H](CO)C(=O)N[C@@H](CCCCN)C(=O)N[C@H](C(=O)N[C@@H](C)C(=O)N[C@@H](C)C(=O)N[C@@H](CCCCN)C(=O)NCC(=O)N[C@@H](CCC(=O)O)C(=O)N[C@@H](C)C(=O)N[C@@H](C)C(=O)N[C@@H](C)C(=O)N[C@@H](CCC(=O)O)C(=O)N[C@@H](CCCNC(=N)N)C(=O)N1CCC[C@H]1C(=O)NCC(=O)N[C@@H](CCC(=O)O)C(=O)O)[C@@H](C)O [myr-peptide 11] (Myristoyl-GAQFSKTAAKGEAAAERPGE-OH) | > 2 mg/mL
2 | Ac-GAQFSKTAAKGEAAAERPGEAAVA-OH [Ac-peptide 1] | > 125 mg/mL
3 | CCCCCCCCCCCCCC(=O)NCC(=O)N[C@@H](C)C(=O)N[C@@H](CCC(N)=O)C(=O)N[C@@H](Cc1ccccc1)C(=O)N[C@@H](CO)C(=O)N[C@@H](CCCCN)C(=O)N[C@H](C(=O)N[C@@H](C)C(=O)N[C@@H](C)C(=O)N[C@@H](CCCCN)C(=O)NCC(=O)N[C@@H](CCC(=O)O)C(=O)O)[C@@H](C)O [myr-peptide 79] (Myristoyl-GAQFSKTAAKGE-OH) | > 2 mg/mL
4 | Ac-AAQFSKTAAK-OH [Ac-peptide 242] | > 100 mg/mL
5 | CC(=O)N[C@@H](C)C(=O)N[C@@H](CCCCN)C(=O)NCC(=O)N[C@@H](CCC(=O)O)C(N)=O [Ac-peptide 219-NH2] (Ac-AKGE-NH2) | > 200 mg/mL
6 | CCCCCCCCCCCCCC(=O)NCC(=O)N[C@@H](CCCCN)C(=O)N[C@@H](CCC(N)=O)C(=O)N[C@@H](Cc1ccccc1)C(=O)N[C@@H](CO)C(=O)N[C@@H](CCCCN)C(=O)N[C@H](C(=O)N[C@@H](CCCCN)C(=O)N[C@@H](C)C(=O)N[C@@H](CCCCN)C(=O)NCC(=O)N[C@@H](CCC(=O)O)C(=O)O)[C@@H](C)O [myr-peptide 235] (Myristoyl-GKQFSKTKAKGE-OH) | > 60 mg/mL
7 | CCCCCCCCCCCCCC(=O)N[C@@H](CCCNC(=N)N)C(=O)N1CCC[C@H]1C(=O)NCC(=O)N[C@@H](CCC(=O)O)C(=O)N[C@@H](C)C(=O)N[C@@H](C)C(=O)N[C@H](C(=O)N[C@@H](C)C(=O)O)C(C)C [myr-peptide 153] (Myristoyl-RPGEAAVA-OH) | < 10 mg/mL
8 | CCCCCCCCCCCCCC(=O)N[C@@H](C)C(=O)N[C@@H](C)C(=O)N[C@@H](CCCCN)C(=O)NCC(=O)N[C@@H](CCC(=O)O)C(=O)N[C@@H](C)C(=O)O [myr-peptide 179] (Myristoyl-AAKGEA-OH) | < 1 mg/mL
9 | Ac-GAQFSKTAAA-OH [Ac-peptide 248] | > 100 mg/mL
10 | CCCCCCCCCCCCCC(=O)N[C@@H](C)C(=O)N[C@@H](CCCCN)C(=O)NCC(=O)N[C@@H](CCC(=O)O)C(=O)O [myr-peptide 219] (Myristoyl-AKGE-OH) | < 1 mg/mL
11 | CCCCCCCCCCCCCC(=O)NCC(=O)N[C@@H](C)C(=O)N[C@@H](CCC(N)=O)C(=O)N[C@@H](Cc1ccccc1)C(=O)N[C@@H](CO)C(=O)N[C@@H](CCCCN)C(=O)N[C@H](C(=O)N[C@@H](C)C(=O)N[C@@H](C)C(=O)O)[C@@H](C)O [myr-peptide 121] (Myristoyl-GAQFSKTAA-OH) | < 1 mg/mL
12 | CCCCCCCCCCCCCC(=O)NCC(=O)N[C@@H](C)C(=O)N[C@@H](CCC(=O)O)C(=O)N[C@@H](Cc1ccccc1)C(=O)N[C@@H](CO)C(=O)N[C@@H](CCCCN)C(=O)N[C@H](C(=O)N[C@@H](C)C(=O)N[C@@H](C)C(=O)N[C@@H](CCCCN)C(=O)NCC(=O)N[C@@H](CCC(=O)O)C(=O)O)[C@@H](C)O [myr-peptide 238] (Myristoyl-GAEFSKTAAKGE-OH) | > 2 mg/mL
13 | Ac-SKTAAKGE-NH2 [Ac-peptide 141-NH2] | > 200 mg/mL
14 | Ac-GAQASKTAAK-OH [Ac-peptide 236] | > 80 mg/mL
15 | Ac-GAQFSKTA-OH [Ac-peptide 137] | > 200 mg/mL
16 | CCCCCCCCCCCCCC(=O)N[C@H](C(=O)N[C@@H](C)C(=O)N[C@@H](C)C(=O)N[C@@H](CCCCN)C(=O)NCC(=O)N[C@@H](CCC(=O)O)C(=O)N[C@@H](C)C(=O)N[C@@H](C)C(=O)O)[C@@H](C)O [myr-peptide 143] (Myristoyl-TAAKGEAA-OH) | < 1 mg/mL
17 | Ac-GAQFAKTAAK-OH [Ac-peptide 244] | > 120 mg/mL
18 | CCCCCCCCCCCCCC(=O)NCC(=O)N[C@@H](C)C(=O)N[C@@H](CCC(N)=O)C(=O)N[C@@H](Cc1ccccc1)C(=O)N[C@@H](CO)C(=O)N[C@@H](CCCCN)C(=O)N[C@H](C(=O)N[C@@H](C)C(=O)N[C@@H](C)C(=O)N[C@@H](CCCCN)C(=O)NCC(=O)N[C@@H](CCC(=O)O)C(N)=O)[C@@H](C)O [myr-peptide 79-NH2] (Myristoyl-GAQFSKTAAKGE-NH2) | < 1 mg/mL

Row | Molecule | solubility
19 | CCCCCCCCCCCCCC(=O)NCC(=O)N[C@@H](C)C(=O)N[C@@H](CCC(N)=O)C(=O)N[C@@H](C)C(=O)N[C@@H](CO)C(=O)N[C@@H](CCCCN)C(=O)N[C@H](C(=O)N[C@@H](C)C(=O)N[C@@H](C)C(=O)N[C@@H](CCCCN)C(=O)NCC(=O)N[C@@H](CCC(=O)O)C(N)=O)[C@@H](C)O [myr-peptide 237-NH2] (Myristoyl-GAQASKTAAKGE-NH2) | < 1 mg/mL
20 | Ac-FSKTAAKGE-NH2 [Ac-peptide 124-NH2] | > 100 mg/mL
21 | Ac-GKASQFAKTA-OH [Ac-peptide 252, reference compound] | < 30 mg/mL
22 | Ac-GAQFSKTAA-OH [Ac-peptide 121] | > 20 mg/mL
23 | Ac-GAQFSKAAAK-OH [Ac-peptide 247] | > 100 mg/mL
24 | Ac-GAQFSKTAAAGE-OH [Ac-peptide 239] | > 50 mg/mL
25 | Ac-GAQFSKTAAKGE-OH [Ac-peptide 79] | > 100 mg/mL
26 | Ac-KAATKSFQAG-OH [Ac-peptide 246, reference compound] | < 30 mg/mL
27 | Ac-AQFSKTAAKGE-NH2 [Ac-peptide 93-NH2] | > 90 mg/mL
28 | CCCCCCCCCCCCCC(=O)NCC(=O)N[C@@H](C)C(=O)N[C@@H](CCC(N)=O)C(=O)N[C@@H](C)C(=O)N[C@@H](CO)C(=O)N[C@@H](CCCCN)C(=O)N[C@H](C(=O)N[C@@H](C)C(=O)N[C@@H](C)C(=O)N[C@@H](CCCCN)C(=O)NCC(=O)N[C@@H](CCC(=O)O)C(=O)O)[C@@H](C)O [myr-peptide 237] (Myristoyl-GAQASKTAAKGE-OH) | < 1 mg/mL
29 | Ac-GAAFSKTAAK-OH [Ac-peptide 243] | > 50 mg/mL
30 | Ac-GAQFSATAAA-OH [Ac-peptide 249] | < 1 mg/mL
31 | Ac-GAQFSATAAK-OH [Ac-peptide 245] | > 100 mg/mL
32 | Ac-AAKGEA-OH [Ac-peptide 179] | > 150 mg/mL
33 | Ac-KTAAKGE-NH2 [Ac-peptide 159-NH2] | > 200 mg/mL
34 | Ac-TAAKGEAA-OH [Ac-peptide 143] | > 230 mg/mL
35 | Ac-GAQFSKTAAKGA-OH [Ac-peptide 241] | > 50 mg/mL
36 | Ac-QFSKTAAKGE-NH2 [Ac-peptide 108-NH2] | > 150 mg/mL

System: methacholine-induced mucin hypersecretion
Assay: Methacholine-induced mucin hypersecretion in ovalbumin-sensitized mouse model of asthma, BAL mucin ELISA (Balb/C mice)
Format: in vivo
Details: Table II, peptides at 100 μM, 50 μL intratracheal 15 min before methacholine
Description: Experiments were designed to test whether or not the MANS peptide and other test peptides related thereto inhibit hypersecretion of mucin in murine airway in vivo. The ovalbumin-sensitized mouse model of allergic inflammation and asthma used in these studies was as described by Singer et al. (2004), supra. As a negative control, a control peptide containing an N-terminal myristoyl group and the same amino acids as MANS peptide but arranged in random order (i.e., the random N-terminal sequence, RNS, myristoyl-peptide 232) was tested alongside the proposed active peptides. BP2 mice, aged 6-8 wks, were immunized subcutaneously twice at weekly intervals with 1 μg of ovalbumin. After 14 days of sensitization, the animals were exposed to aerosolized ovalbumin, which causes a pronounced goblet cell hyperplasia after 72 hours. At the 72 hr time point, the secretagogue, methacholine ([…]) was delivered using a Buxco system nebulizer providing a fine aerosol for 90 seconds. Fifteen min prior to the secretagogue challenge, 50 μL of the test peptide, at 3 different concentrations (10 μM, 100 μM, or 140 μM), was administered by intratracheal route. The RNS peptide was tested at the highest dose level only (50 μL of 140 μM solution). […] Each experiment was carried out in 6 mice per point, and each set of experiments was repeated 3 times. To test strain-to-strain variations, the above experiment was repeated in Balb/C mice under similar protocol. Both stimulated and unstimulated mucin secretion, in mice treated with […] sodium acetate (data not shown), were identical to saline control. Following the methacholine challenge, the animals were sacrificed and bronchoalveolar lavage (BAL) performed on 6 animals per group for analysis of secreted mucin.
Mice were sacrificed by cervical dislocation, followed by rapid exposure of the trachea and insertion of a cannula through a small incision. Bronchoalveolar lavage (BAL) fluid was collected with 0.5 ml followed by 3×1 ml PBS containing PMSF (5 mM), EDTA (5 mM), and DTT (5 mM). BAL fluid was separated into cell-free and cell fractions via brief centrifugation prior to any analyses being performed. The cell-free supernatants were analyzed for the presence of mucin via an ELISA method using anti-mucin antibodies shown to react with mouse mucin. Specifically, a mouse anti-MUC5AC antibody that recognizes the carbohydrate portion of secreted mucin was used in these assays. Data generated from each BAL sample were normalized to total protein as determined by Bradford assay. Mucin content was expressed as the value obtained with the anti-mucin antibody minus that obtained with the non-immune control antibody. All ELISA data were statistically examined using a one-way ANOVA.

Row | Molecule | Mucin Secretion % control
37 | CCCCCCCCCCCCCC(=O)NCC(=O)N[C@@H](C)C(=O)N[C@@H](CCC(N)=O)C(=O)N[C@@H](Cc1ccccc1)C(=O)N[C@@H](CO)C(=O)N[C@@H](CCCCN)C(=O)N[C@H](C(=O)N[C@@H](C)C(=O)N[C@@H](C)C(=O)N[C@@H](CCCCN)C(=O)NCC(=O)N[C@@H](CCC(=O)O)C(=O)O)[C@@H](C)O [myr-peptide 79] (Myristoyl-GAQFSKTAAKGE-OH) | 50 % control
38 | CCCCCCCCCCCCCC(=O)NCC(=O)N[C@@H](CCCCN)C(=O)N[C@@H](CCC(N)=O)C(=O)N[C@@H](Cc1ccccc1)C(=O)N[C@@H](CO)C(=O)N[C@@H](CCCCN)C(=O)N[C@H](C(=O)N[C@@H](CCCCN)C(=O)N[C@@H](C)C(=O)N[C@@H](CCCCN)C(=O)NCC(=O)N[C@@H](CCC(=O)O)C(=O)O)[C@@H](C)O [myr-peptide 235] (Myristoyl-GKQFSKTKAKGE-OH) | 13 % control
39 | CCCCCCCCCCCCCC(=O)NCC(=O)N[C@@H](C)C(=O)N[C@@H](CCC(N)=O)C(=O)N[C@@H](Cc1ccccc1)C(=O)N[C@@H](CO)C(=O)N[C@@H](CCCCN)C(=O)N[C@H](C(=O)N[C@@H](C)C(N)=O)[C@@H](C)O [myr-peptide 137-NH2] (Myristoyl-GAQFSKTA-NH2) | 56 % control

Same assay, conditions: Table III, peptides at 100 μM

Row | Molecule | Mucin Secretion % control
40 | CCCCCCCCCCCCCC(=O)NCC(=O)N[C@@H](C)C(=O)N[C@@H](CCC(N)=O)C(=O)N[C@@H](Cc1ccccc1)C(=O)N[C@@H](CO)C(=O)N[C@@H](CCCCN)C(=O)N[C@H](C(=O)N[C@@H](C)C(=O)N[C@@H](C)C(=O)N[C@@H](CCCCN)C(=O)NCC(=O)N[C@@H](CCC(=O)O)C(=O)N[C@@H](C)C(=O)N[C@@H](C)C(=O)N[C@@H](C)C(=O)N[C@@H](CCC(=O)O)C(=O)N[C@@H](CCCNC(=N)N)C(=O)N1CCC[C@H]1C(=O)NCC(=O)N[C@@H](CCC(=O)O)C(=O)O)[C@@H](C)O [myr-peptide 11] (Myristoyl-GAQFSKTAAKGEAAAERPGE-OH) | 54 % control
41 | CCCCCCCCCCCCCC(=O)NCC(=O)N[C@@H](C)C(=O)N[C@@H](CCC(N)=O)C(=O)N[C@@H](Cc1ccccc1)C(=O)N[C@@H](CO)C(=O)N[C@@H](CCCCN)C(=O)N[C@H](C(=O)N[C@@H](C)C(=O)N[C@@H](C)C(=O)N[C@@H](CCCCN)C(=O)NCC(=O)N[C@@H](CCC(=O)O)C(=O)O)[C@@H](C)O [myr-peptide 79] (Myristoyl-GAQFSKTAAKGE-OH) | 48 % control
42 | CCCCCCCCCCCCCC(=O)N[C@@H](CCCNC(=N)N)C(=O)N1CCC[C@H]1C(=O)NCC(=O)N[C@@H](CCC(=O)O)C(=O)N[C@@H](C)C(=O)N[C@@H](C)C(=O)N[C@H](C(=O)N[C@@H](C)C(=O)O)C(C)C [myr-peptide 153] (Myristoyl-RPGEAAVA-OH) | 50 % control

From US9598463B2, “Mucin hypersecretion inhibitors and methods of use” (BIOMARCK PHARMACEUTICALS, LTD., priority 2005, dated 2017)
